Assay results taken from patent publication US10093713B2, “GIP-GLP-1 dual agonist compounds and methods” (priority 2013, dated 2018).
Where two headings read alike, the source gives them in different places. *1 amine or outer side, *2 acyl side, *3 side chain or, on linkers, in order; H or OH if unused. Where a SMILES comes first, the peptide text is derived from it. Side-chain parts run from the residue outwards. [ ]: non-standard residue; d: D form. The star is where a group is joined. C20 diacid = O=C(O)CCCCCCCCCCCCCCCCCCC(=O)*; C18 diacid = O=C(O)CCCCCCCCCCCCCCCCC(=O)*; γGlu = O=C(O)[C@H](CCC(=O)[*:2])N[*:1]; AEEA = NCCOCCOCC(=O)O; Aib = CC(C)(N)C(=O)O

Columns and labels:
[1] = Pharmacokinetics of selected compounds in mice; type: in vivo, C57BL/6J mice; details: male, C57BL/6J, mouse, plasma; for bioavailability: subcutaneous, AUCinf (s.c.)/AUCinf (i.v.)x100, values marked * capped to 100%
Protocol: Pharmacokinetics of Selected Compounds in Mice
C57BL/6J mice (males with a body weight of approximately 25 g) were given either a single subcutaneous (s.c.) bolus or a single intravenous (i.v.) bolus of each peptide to be tested.
Following s.c. administration of the selected compounds (50, 100 or 200 nmol/kg), blood samples were drawn at 8 (eight) timepoints up to 72 hours post-dose. Following i.v. administration of the selected compounds (50, 100 or 200 nmol/kg), blood samples were drawn at 8 (eight) timepoints up to 48 hours post-dose. Blood samples were drawn by sublingual bleeding. The dosing vehicle was a phosphate buffer containing mannitol (pH 7.5).
At each sampling time point, samples from two mice were drawn, i.e. 16 mice were included for each compound and each administration route. The mice were euthanized immediately after blood sampling by cervical dislocation. Plasma samples were analyzed after solid phase extraction (SPE) or protein precipitation followed by liquid chromatography mass spectrometry (LC-MS/MS). Mean plasma concentrations were used for calculation of the pharmacokinetic parameters using the non-compartmental approach in Phoenix WinNonlin 6.3. Plasma terminal elimination half-life (T½) was determined as […] where λz is the magnitude of the slope of the log linear regression of the log concentration versus time profile during the terminal phase. Bioavailability was determined as AUCinf (s.c.)/AUCinf (i.v.)×100, where AUCinf is the area under the plasma concentration−time curve extrapolated to infinity (AUCinf=AUClast+Clast/λz, where Clast is the last observed plasma concentration). Tmax is the post-dose time where the maximal plasma concentration was observed.

[2] = target: T1, human GLP-1 R (Homo sapiens, UniProt P43220); assay: Human GLP-1 receptor (GLP-1 R) activity assay, cAMP induction (AlphaScreen) in HEK293 cells; type: cell-based
T1 construct: expressed in transfected cells
T1 sequence (P43220 24-463): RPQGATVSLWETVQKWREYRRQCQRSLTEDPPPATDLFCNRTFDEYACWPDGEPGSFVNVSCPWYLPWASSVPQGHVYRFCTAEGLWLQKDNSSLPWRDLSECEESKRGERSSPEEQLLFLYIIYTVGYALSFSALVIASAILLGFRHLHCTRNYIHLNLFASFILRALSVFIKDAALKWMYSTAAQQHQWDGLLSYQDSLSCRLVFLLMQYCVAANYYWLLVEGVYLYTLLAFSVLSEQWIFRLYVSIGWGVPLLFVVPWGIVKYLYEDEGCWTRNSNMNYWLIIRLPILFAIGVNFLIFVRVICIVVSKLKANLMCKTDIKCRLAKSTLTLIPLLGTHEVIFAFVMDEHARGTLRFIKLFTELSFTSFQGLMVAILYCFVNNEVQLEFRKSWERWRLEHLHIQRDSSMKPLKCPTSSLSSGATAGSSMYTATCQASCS
Method in brief: (§1)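 Stable HEK293 clones expressing human GIP R or GLP-1 R, seeded 1 day before; cells washed in Tyrode's buffer (10 mM HEPES, pH 7.4), stimulated, then lysed. cAMP measured by AlphaScreen bead competition (1 h, room temperature, dark). EC50 = concentration giving half-maximal cAMP elevation, from curves of absolute cAMP (nM) vs log concentration.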

[3] = target: T2, human GIP R (Homo sapiens, UniProt P48546); assay: Human GIP receptor (GIP R) activity assay, cAMP induction (AlphaScreen) in HEK293 cells; type: cell-based; details: read-out: hGIP-R cAMP EC50 average value
T2 construct: expressed in transfected cells
T2 sequence (P48546 22-466): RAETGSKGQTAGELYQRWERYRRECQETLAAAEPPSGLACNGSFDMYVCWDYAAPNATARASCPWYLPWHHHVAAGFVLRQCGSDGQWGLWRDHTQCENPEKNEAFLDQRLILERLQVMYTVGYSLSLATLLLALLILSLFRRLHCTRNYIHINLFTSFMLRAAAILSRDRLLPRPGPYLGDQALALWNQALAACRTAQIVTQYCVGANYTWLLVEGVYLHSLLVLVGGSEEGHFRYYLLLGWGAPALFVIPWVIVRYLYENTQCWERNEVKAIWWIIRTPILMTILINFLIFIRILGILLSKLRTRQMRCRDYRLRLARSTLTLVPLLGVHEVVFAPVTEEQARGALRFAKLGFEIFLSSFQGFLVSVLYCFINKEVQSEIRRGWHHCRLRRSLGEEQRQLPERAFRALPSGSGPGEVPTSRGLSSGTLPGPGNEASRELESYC
Method in brief: as §1

[4] = iv, single i.v. bolus, read-out: T½ terminal elimination half-life, i.v. (converted)
[5] = Table 2, HEK293 cells expressing human GLP-1 R, read-out: hGLP1-R cAMP EC50 average value
[6] = Table 2, HEK293 cells expressing human GIP R
[7] = Table 3, most comprehensive data
[8] = Table 3, most comprehensive data, read-out: hGLP-1-R cAMP EC50 average value
[9] = sc, single s.c. bolus, read-out: T½ terminal elimination half-life, s.c. (converted)

CC[C@H](C)[C@H](NC(=O)[C@H](CO)NC(=O)[C@H](Cc1ccc(O)cc1)NC(=O)[C@H](CC(=O)O)NC(=O)[C@H](CO)NC(=O)[C@@H](NC(=O)[C@H](Cc1ccccc1)NC(=O)[C@@H](NC(=O)CNC(=O)[C@H](CCC(=O)O)NC(=O)C(C)(C)NC(=O)[C@@H](N)Cc1ccc(O)cc1)[C@@H](C)O)[C@@H](C)O)C(=O)N[C@@H](Cc1ccc(O)cc1)C(=O)N[C@@H](CC(C)C)C(=O)N[C@@H](CC(=O)O)C(=O)N[C@@H](CCCCN)C(=O)N[C@@H](CCCCNC(=O)COCCOCCNC(=O)COCCOCCNC(=O)COCCOCCNC(=O)CC[C@H](NC(=O)CCCCCCCCCCCCCCCCCCC(=O)O)C(=O)O)C(=O)N[C@@H](C)C(=O)N[C@@H](CCC(N)=O)C(=O)N[C@@H](CCCNC(=N)N)C(=O)N[C@@H](C)C(=O)N[C@@H](Cc1ccccc1)C(=O)N[C@H](C(=O)N[C@@H](CCC(=O)O)C(=O)N[C@@H](Cc1c[nH]c2ccccc12)C(=O)N[C@@H](CC(C)C)C(=O)N[C@@H](CC(C)C)C(=O)N[C@@H](C)C(=O)N[C@@H](CCC(N)=O)C(=O)NCC(=O)N1CCC[C@H]1C(=O)N[C@@H](CO)C(=O)N[C@@H](CO)C(=O)NCC(=O)N[C@@H](C)C(=O)N1CCC[C@H]1C(=O)N1CCC[C@H]1C(=O)N1CCC[C@H]1C(=O)N[C@@H](CO)C(N)=O)C(C)C [Compound 8] (H-Y[Aib]EGTFTSDYSIYLDKK([AEEA-AEEA-AEEA-γGlu-C20 diacid])AQRAFVEWLLAQGPSSGAPPPS-NH2)
half-life [1, 4]: 17.2 h | bioavailability [1]: 54% | Tmax ([1]; sc, single s.c. bolus): 8 h | EC50 [2, 5]: 0.012 nM | EC50 ([2]; Table 2a, secondary assay study, read-out: hGLP1-R cAMP EC50 average value): 0.012 nM | EC50 [3, 6]: 0.0053 nM | EC50 ([3]; Table 2a, secondary assay study): 0.005 nM | EC50 [3, 7]: 0.005 nM

CC[C@H](C)[C@H](NC(=O)[C@H](CO)NC(=O)[C@H](Cc1ccc(O)cc1)NC(=O)[C@H](CC(=O)O)NC(=O)[C@H](CO)NC(=O)[C@@H](NC(=O)[C@H](Cc1ccccc1)NC(=O)[C@@H](NC(=O)CNC(=O)[C@H](CCC(=O)O)NC(=O)C(C)(C)NC(=O)[C@@H](N)Cc1ccc(O)cc1)[C@@H](C)O)[C@@H](C)O)C(=O)N[C@@H](C)C(=O)N[C@@H](CC(C)C)C(=O)N[C@@H](CC(=O)O)C(=O)N[C@@H](CCCCN)C(=O)N[C@@H](CCCCNC(=O)COCCOCCNC(=O)COCCOCCNC(=O)CC[C@H](NC(=O)CCCCCCCCCCCCCCCCCCC(=O)O)C(=O)O)C(=O)N[C@@H](C)C(=O)N[C@@H](CCC(N)=O)C(=O)N[C@@H](CCCNC(=N)N)C(=O)N[C@@H](C)C(=O)N[C@@H](Cc1ccccc1)C(=O)N[C@H](C(=O)N[C@@H](CC(N)=O)C(=O)N[C@@H](Cc1c[nH]c2ccccc12)C(=O)N[C@@H](CC(C)C)C(=O)N[C@H](C(=O)N[C@@H](C)C(=O)NC(C)(C)C(=O)N[C@@H](CCCCN)C(=O)N1CCC[C@H]1C(=O)N[C@@H](CO)C(=O)N[C@@H](CO)C(=O)NCC(=O)N[C@@H](C)C(=O)N1CCC[C@H]1C(=O)N1CCC[C@H]1C(=O)N1CCC[C@H]1C(=O)N[C@@H](CO)C(N)=O)C(C)C)C(C)C [Compound 15]
half-life [1, 4]: 17.3 h | bioavailability [1]: 95% | Tmax ([1]; sc, single s.c. bolus): 8 h | EC50 [2, 5]: 0.0088 nM | EC50 [2, 8]: 0.009 nM | EC50 [3, 6]: 0.008 nM | EC50 [3, 7]: 0.008 nM

CC[C@H](C)[C@H](NC(=O)[C@H](CO)NC(=O)[C@H](Cc1ccc(O)cc1)NC(=O)[C@H](CC(=O)O)NC(=O)[C@H](CO)NC(=O)[C@@H](NC(=O)[C@H](Cc1ccccc1)NC(=O)[C@@H](NC(=O)CNC(=O)[C@H](CCC(=O)O)NC(=O)C(C)(C)NC(=O)[C@@H](N)Cc1ccc(O)cc1)[C@@H](C)O)[C@@H](C)O)C(=O)N[C@@H](C)C(=O)N[C@@H](CC(C)C)C(=O)N[C@@H](CCC(=O)O)C(=O)N[C@@H](CCCCN)C(=O)N[C@@H](CCCCNC(=O)COCCOCCNC(=O)COCCOCCNC(=O)CC[C@H](NC(=O)CCCCCCCCCCCCCCCCC(=O)O)C(=O)O)C(=O)N[C@@H](C)C(=O)N[C@@H](CCC(N)=O)C(=O)N[C@@H](CCCNC(=N)N)C(=O)N[C@@H](C)C(=O)N[C@@H](Cc1ccccc1)C(=O)N[C@H](C(=O)N[C@@H](CCC(=O)O)C(=O)N[C@@H](Cc1c[nH]c2ccccc12)C(=O)N[C@@H](CC(C)C)C(=O)N[C@@H](CC(C)C)C(=O)N[C@@H](C)C(=O)N[C@@H](CCC(N)=O)C(=O)N[C@@H](CCCCN)C(N)=O)C(C)C [Compound 16] (H-Y[Aib]EGTFTSDYSIALEKK([AEEA-AEEA-γGlu-C18 diacid])AQRAFVEWLLAQK-NH2)
half-life [1, 4]: 7.4 h | bioavailability [1]: 50% | Tmax ([1]; sc, single s.c. bolus): 6 h | EC50 [2, 5]: 0.015 nM | EC50 [3, 6]: 0.0081 nM | EC50 [3, 7]: 0.008 nM

CC[C@H](C)[C@H](NC(=O)[C@H](CO)NC(=O)[C@H](CC(C)C)NC(=O)[C@H](CC(=O)O)NC(=O)[C@H](CO)NC(=O)[C@@H](NC(=O)[C@H](Cc1ccccc1)NC(=O)[C@@H](NC(=O)CNC(=O)[C@H](CCC(=O)O)NC(=O)C(C)(C)NC(=O)[C@@H](N)Cc1ccc(O)cc1)[C@@H](C)O)[C@@H](C)O)C(=O)N[C@@H](C)C(=O)N[C@@H](CC(C)C)C(=O)N[C@@H](CCC(=O)O)C(=O)N[C@@H](CCCCN)C(=O)N[C@@H](CCCCNC(=O)COCCOCCNC(=O)COCCOCCNC(=O)CC[C@H](NC(=O)CCCCCCCCCCCCCCCCCCC(=O)O)C(=O)O)C(=O)N[C@@H](C)C(=O)N[C@@H](CCC(N)=O)C(=O)N[C@@H](CCCNC(=N)N)C(=O)N[C@@H](C)C(=O)N[C@@H](Cc1ccccc1)C(=O)N[C@H](C(=O)N[C@@H](CCC(=O)O)C(=O)N[C@@H](Cc1c[nH]c2ccccc12)C(=O)N[C@@H](CC(C)C)C(=O)N[C@@H](CC(C)C)C(=O)N[C@@H](C)C(=O)N[C@@H](CCC(N)=O)C(=O)N[C@@H](CCCCN)C(N)=O)C(C)C [Compound 28] (H-Y[Aib]EGTFTSDLSIALEKK([AEEA-AEEA-γGlu-C20 diacid])AQRAFVEWLLAQK-NH2)
half-life [1, 4]: 13.6 h | bioavailability [1]: 93% | Tmax ([1]; sc, single s.c. bolus): 2 h | half-life [1, 9]: 14.1 h | EC50 [2, 5]: 0.017 nM | EC50 [2, 8]: 0.015 nM | EC50 [3, 6]: 0.024 nM

CC[C@H](C)[C@H](NC(=O)[C@H](CO)NC(=O)[C@H](Cc1ccc(O)cc1)NC(=O)[C@H](CC(=O)O)NC(=O)[C@H](CO)NC(=O)[C@@H](NC(=O)[C@H](Cc1ccccc1)NC(=O)[C@@H](NC(=O)CNC(=O)[C@H](CCC(=O)O)NC(=O)[C@@H](C)NC(=O)[C@@H](N)Cc1ccc(O)cc1)[C@@H](C)O)[C@@H](C)O)C(=O)N[C@@H](Cc1ccc(O)cc1)C(=O)N[C@@H](CC(C)C)C(=O)N[C@@H](CC(=O)O)C(=O)N[C@@H](CCCCN)C(=O)N[C@@H](CCCCNC(=O)COCCOCCNC(=O)COCCOCCNC(=O)CC[C@H](NC(=O)CCCCCCCCCCCCCCCCCCC(=O)O)C(=O)O)C(=O)N[C@@H](C)C(=O)N[C@@H](CCC(N)=O)C(=O)N[C@@H](CCCNC(=N)N)C(=O)N[C@@H](C)C(=O)N[C@@H](Cc1ccccc1)C(=O)N[C@H](C(=O)N[C@@H](CCC(=O)O)C(=O)N[C@@H](Cc1c[nH]c2ccccc12)C(=O)N[C@@H](CC(C)C)C(=O)N[C@@H](CC(C)C)C(=O)N[C@@H](C)C(=O)N[C@@H](CCC(N)=O)C(=O)NCC(=O)N1CCC[C@H]1C(=O)N[C@@H](CO)C(=O)N[C@@H](CO)C(=O)NCC(=O)N[C@@H](C)C(=O)N1CCC[C@H]1C(=O)N1CCC[C@H]1C(=O)N1CCC[C@H]1C(=O)N[C@@H](CO)C(N)=O)C(C)C [Compound 30] (H-Y[dA]EGTFTSDYSIYLDKK([AEEA-AEEA-γGlu-C20 diacid])AQRAFVEWLLAQGPSSGAPPPS-NH2)
half-life [1, 4]: 17.1 h | bioavailability [1]: 83% | Tmax ([1]; sc, single s.c. bolus): 8 h | half-life [1, 9]: 15.9 h | EC50 [2, 5]: 0.028 nM | EC50 [2, 8]: 0.035 nM | EC50 [3, 6]: 0.015 nM | EC50 [3, 7]: 0.017 nM
